Source: PMC13198257, “An aerosolized dual-action autotaxin inhibitor-PPARγ agonist for the treatment of pulmonary fibrosis” (Cell Reports Medicine, 2026)

Columns and labels:
[1] = Fast-track PK of compound 5: plasma exposure after i.v., i.p., inhalation, per os; type: in vivo, mice; conditions: 30 mg/kg, 1 and 3 h post-dose, versus i.v.
type 2 diabetes model = test: HFD/STZ type 2 diabetes model, oGTT; type: in vivo, C57bl/6 male mice; conditions: i.p. 50 mg/kg daily, final 2 weeks
Description: One-year old male mice were given a High-Fat Diet (D12492, Research Diets) for 10 weeks. During the sixth week of the HFD period, mice received three streptozotocin injections (40mg/kg). Control mice that were consuming a control diet (D12450Ji, Research Diets) received injections with the solvent of STZ, 50 mM sodium citrate buffer, pH 4.5. During the last two weeks of the HFD treatment, a subgroup of prediabetic mice was daily administered EL244 through intraperitoneal injections (50 mg/kg). Disease induction and EL244 efficacy were assessed using an Oral Glucose tolerance test (oGTT), as widely used.[64]^,[65]^,[66] 6-hr-fasted mice were administered a 10% glucose solution at 1 g/kg orally. Blood glucose levels were measured with a saccharometer before glucose administration and at 15, 30, 60, 90, and 120 min thereafter. Insulin resistance was assessed by the Area under curve (AUC) of the oGTT.

## O=C1NC(=O)C(Cc2ccc(OCCN3CCN(C(=O)OCc4cc(Cl)cc(Cl)c4)CC3)cc2)S1 (stereo not shown) [Compound 5, 3,5-dichlorobenzyl4-(2-(4-((2,4-dioxothiazolidin-5-yl)methyl)phenoxy)ethyl)piperazine-1-carboxylate]
[1]
  Plasma concentrations after i.p. and per os administration: comparable to the respective i.v. concentrations

## O=C1NC(=O)C(Cc2ccc(OCCC3CCN(C(=O)OCc4cc(Cl)cc(Cl)c4)CC3)cc2)S1 (stereo not shown) [EL244, 3,5-dichlorobenzyl 4-(2-(4-((2,4-dioxothiazolidin-5-yl)methyl)phenoxy)ethyl)piperidine-1-carboxylate]
Type 2 diabetes model
  Glucose levels: lower glucose levels
  Insulin resistance (AUC of oGTT): decreased insulin resistance
  PPARγ target gene expression in adipose and liver tissue: stimulated the expression of several PPARγ target genes
